Reference: US8603528B2, “Compositions and method for the reduction of post-operative pain” (ABYRX, Inc., priority 2004, dated 2013)
Entries after “also recorded” stand apart in the source; their conditions may differ.

Assay: Evaluation of elution rates of analgesic from a 0.5 gm composition button in phosphate buffer, HPLC-UV
Format: physicochemical
Method: The surface area exposed to the buffer is about 0.785 sq. cm. One cc aliquots of the buffer solution are taken over a three day period, every 2 hours during business hours of day one, then several times on each of days two and three. […] The same procedure was followed for measurement of the elution of bupivacaine free base and hydrochloride.

effect of the added material on the elution rate of the anesthetic from the putty	period over which the free base of lidocaine is eluted (liquid component of the putty changed from triethyl citrate to Pluronic L-35 and tocopheryl acetate)	period over which the free base of lidocaine is released (putty-like composition comprising lidocaine free base, calcium stearate and liquid triethyl citrate)	Compound
retard the elution			CCCCCCCCCCCC(=O)OCC [ethyl laurate]
retard the elution			CCCCCCCCCCCCOC(C)=O [lauryl acetate]
	eight	three	CCN(CC)CC(=O)Nc1c(C)cccc1C [lidocaine free base, lidocaine, reference compound]

Compound	effect of the added material on the elution rate of the anesthetic from the putty	period over which the free base of lidocaine is eluted (liquid component of the putty changed from triethyl citrate to Pluronic L-35 and tocopheryl acetate)	period over which the free base of lidocaine is released (putty-like composition comprising lidocaine free base, calcium stearate and liquid triethyl citrate)
CC(=O)Oc1c(C)c(C)c2c(c1C)CCC(C)(CCC[C@H](C)CCC[C@H](C)CCCC(C)C)O2 (some centres unmarked) [tocopheryl acetate]	slow down the elution rate; also recorded: reduces the elution rate; also recorded: retard the elution		
